Assays:
NCI-H226 cells = experiment: Proliferation and cell viability assay, CellTiter-Glo 2.0 (CTG); format: cell-based, human; details: 144 hrs
Protocol: Cell proliferation of a TEAD dependent NF2-null mesothelioma cell line, NCI-H226 was assayed using two different protocols. Results were confirmed in two different TEAD-non-dependent lung cancer cell lines, H23 and H28, were used as non-responsive controls, as indicated:
a) CellTiter-Glo® 2.0 (Promega #G9243). The effect of the TEAD inhibitors disclosed herein on cell proliferation was determined in TEAD1-genetically dependent cell line NCI-H226 (responder cell line) and TEAD-independent cell lines (NCI-H23, HEK293T), as non-responder, negative control. Cells were seeded in 96-well plates (Thermo Scientific #167008) in growth media (RPMI-1640, Gibco #61870-010) for NCI-H226 and NCI-H23 or DMEM (Gibco #31966-021, HEK293T) with […] Heat Inactivated Fetal Bovine Serum (Gibco 10500-064) at 800 (NCI-H226 and HEK-293T) or 2000 (NCI-H23) cells per well at 37° C., […], humidified incubator; 24 hours later, fresh growth media containing test compound or DMSO vehicle was added and incubated with the cells for 144 hrs. TEAD inhibitor stocks were made at a 1000× fold excess in DMSO, and a dose response test compound dose range of 10,000 to 0.1 nM was used. Each treatment was carried out in triplicate. After 144 hrs of treatment, relative cell viability numbers were determined using the CellTiter-Glo 2.0 assay following the manufacturer's instructions. Test plates and CellTiter-Glo 2.0 reagent were allowed to equilibrate to room temperature. CellTiter-Glo 2.0 reagent was added at 1:1 reagent to media ratio to the 96-well cell plates, plates were placed on a plate shaker for 2 minutes and then incubated at room temperature for a further 10 minutes to allow complete cell lysis to occur. The mix was then transferred to white, 96-well luminometer assay plates (Greiner Bio One #655075). Luminescence was quantified using a CLARIOStar Plus multi-mode plate reader (BMG Labtech) in luminescence detection mode with the recommended settings (ultra-Glo pre-set: emission 545-50 nm with autofocus and enhanced dynamic range on). Relative cell density was expressed as a function of inhibitor concentration, with respect to DMSO-only control wells. Data where plotted using GraphPad Prism and IC50 values for the biological effect were calculated using the EC50 non-linear fit function using a sigmoidal, 4-parameter logistic, least squares fit with no constraints.
For IC50 and EC50 data “A” indicates a value of less than 0.2 μM; the symbol “B” indicates a value in the range of from 0.2 μM up to 1 μM; and the symbol “C” indicates a value of greater than 1 μM. ND: no data.

Mero82 cells = experiment: Mero82 proliferation and cell viability assay (CTG); format: cell-based; details: 144 hours
Protocol: Mero 82 cells were trypsinised, counted and plated at 400 cells/well in 200 μl of growth media in 96 well flat bottom tissue culture treated plates. The plated cells were incubated overnight at 37° C., 5% CO2 before being treated with compounds in triplicate for each assay point. 50 μl of the serially diluted compound was added to each well giving a final DMSO concentration of 0.5% per well and a total volume of 250 μl per well. The treated cells were incubated for 144 hours (6 days) at 37° C., 5% CO2. Following compound treatment, the remaining viable cells were detected using the Promega CellTiter-Glo 2.0 assay as follows: 150 μl of media was removed from each of the wells to be assayed and 100 μl of room temperature CellTiter-Glo 2.0 reagent was added. The plate was placed on an orbital shaker at 500 rpm at room temperature for 2 minutes, and then incubated without shaking for a further 10 minutes at room temperature. 150 μl of cell lysate was removed from each well and dispensed into a single well of a white opaque 96 well plate. Luminescence at 545 nm was read using a BMG CLARIOstar plate reader. The luminescent signal was directly proportional to number of viable cells, the percent of viable cells relative to the DMSO control was then calculated for each assay point. Percent viability relative to DMSO control was plotted against compound concentration and a curve fitted with non-linear regression in GraphPad Prism software. EC50 and absolute IC50 values were calculated using GraphPad Prism software as follows: For EC50 values, a non-constrained four-parameter logistic curve fit was used (Sigmoidal, 4PL, X is concentration). For Absolute IC50 values the baseline was constrained to Y=0 and top at 100 (Absolute IC50, X is concentration). Area Under the Curve (AUC): Prism computes area-under-the-curve by the trapezoidal method. The analysis sees a fitted curve as simply a series of connected XY points. Prism simply computes the area under the “curve” defined by connecting the points by straight lines. The units of the AUC are the units of the Y axis times units of the X axis.
For EC50 data, the symbol “A” indicates a value of less than 0.2 μM; the symbol “B” indicates a value in the range of from 0.2 μM up to 1 μM; and the symbol “C” indicates a value of greater than 1 μM.

BHY cells = experiment: BHY proliferation and cell viability assay (CTG); format: cell-based; details: 144 hours
Protocol: BHY cells were trypsinised, counted and plated at 2500 cells/well in 200 μl of growth media in 96 well flat bottom tissue culture treated plates. The plated cells were incubated overnight at 37° C., 5% CO2 before being treated with compounds in triplicate for each assay point. 50 μl of the serially diluted compound was added to each well giving a final DMSO concentration of 0.5% per well and a total volume of 250 μl per well. The treated cells were incubated for 144 hours (6 days) at 37° C., 5% CO2. Following compound treatment, the remaining viable cells were detected using the Promega CellTiter-Glo 2.0 assay as follows: 150 μl of media was removed from each of the wells to be assayed and 100 μl of room temperature CellTiter-Glo 2.0 reagent was added. The plate was placed on an orbital shaker at 500 rpm at room temperature for 2 minutes, and then incubated without shaking for a further 10 minutes at room temperature. 150 μl of cell lysate was removed from each well and dispensed into a single well of a white opaque 96 well plate. Luminescence at 545 nm was read using a BMG CLARIOstar plate reader. The luminescent signal was directly proportional to number of viable cells, the percent of viable cells relative to the DMSO control was then calculated for each assay point. Percent viability relative to DMSO control was plotted against compound concentration and a curve fitted with non-linear regression in GraphPad Prism software. EC50 and absolute IC50 values are calculated using GraphPad Prism software as follows: For EC50 values, a non-constrained four-parameter logistic curve fit was used (Sigmoidal, 4PL, X is concentration). For Absolute IC50 values the baseline was constrained to Y=0 and top at 100 (Absolute IC50, X is concentration). Area Under the Curve (AUC): Prism computes area-under-the-curve by the trapezoidal method. The analysis sees a fitted curve as simply a series of connected XY points. Prism simply computes the area under the “curve” defined by connecting the points by straight lines. The units of the AUC are the units of the Y axis times units of the X axis. […]

[1] = Homo sapiens, NCI-H226, responder cell line

| EC50 (NCI-H226 cells; [1]) [µM] | EC50 (NCI-H226 cells; responder cell line) [µM] | Structure (SMILES) | EC50 (Mero82 cells) [µM] | EC50 (BHY cells) [µM] |
| --- | --- | --- | --- | --- |
| < 0.2 | – | Cn1nnc(-c2cc([C@]3(C)CCNC3=O)ccc2Nc2ccc(C(F)(F)F)cc2)n1 (stereo in doubt) [Compound 20, 3-methyl-3-(3-(2-methyl-2H-tetrazol-5-yl)-4-((4-(trifluoromethyl)phenyl)amino)phenyl) pyrrolidin-2-one] | < 0.2 | – |
| – | – | FC(F)(F)c1ccc(CN2CCC(C3CC(Br)=NO3)CC2)cc1 (centres unmarked) [Compound 1-2, reference compound] | > 1 | > 1 |
| – | < 0.2 | Cn1cnc(-c2cc(C3(C)NC(=O)NC3=O)ccc2Nc2ccc(C(F)(F)F)cc2)c1 (single isomer, unassigned) [Compound 15, 5-methyl-5-(3-(1-methyl-1H-imidazol-4-yl)-4-((4-(trifluoromethyl)phenyl)amino)phenyl)imidazolidine-2,4-dione] | < 0.2 | – |
| < 0.2 | – | Cn1cnc(-c2cc([C@@]3(C)CCNC3=O)ccc2Nc2ccc(C(F)(F)F)cc2)c1 (single isomer, unassigned) [Compound 5, 3-methyl-3-(3-(1-methyl-1H-imidazol-4-yl)-4-((4-(trifluoromethyl)phenyl)amino)phenyl)pyrrolidin-2-one] | < 0.2 | 0.2 to 1 |
| – | – | C=CC(=O)Nc1ccc(C)c(Oc2ccc(Cl)cc2)c1 [Compound 1-3, reference compound] | < 0.2 | < 0.2 |

— patent US20260317304A1, “TEAD INHIBITORS AND METHODS OF USE” (Sporos BioDiscovery, Inc., priority 2022, published 2026)
